Data from article PMC7868085, “A potent and selective small molecule inhibitor of myoferlin attenuates colorectal cancer progression” (Clinical and Translational Medicine, 2021).

Target: T1, Myoferlin (MYOF) (Homo sapiens, UniProt Q9NZM1)
T1 construct: C2D domain of MYOF (MYOF-C2D)
T1 sequence (Q9NZM1 1123-1251 limits assumed): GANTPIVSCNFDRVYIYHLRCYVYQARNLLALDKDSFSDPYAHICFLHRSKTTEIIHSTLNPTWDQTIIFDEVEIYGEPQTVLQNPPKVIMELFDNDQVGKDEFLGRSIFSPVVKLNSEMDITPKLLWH
Test: SPR (Biacore T200, immobilized MYOF-C2D); confirmed by BLI (KD =[…])
Assay type: binding

Kd: 0.037 µM
Compound: CCc1nc(-c2ccc(OC)cc2)n(-c2cccc(C(=O)NCCCCc3ccccc3)c2)n1 [YQ456, 3‐(3‐ethyl‐5‐(4‐methoxyphenyl)‐1H‐1,2,4‐triazol‐1‐yl)‐N‐(4‐phenylbutyl)benzamide]
